ChEMBL document CHEMBL6074678, “Selectively Antagonizing the NOD1-Mediated Inflammatory Signaling Pathway Mitigates the Gastric Inflammation Induced by Helicobacter pylori Infection” (J Med Chem, 2024)

Legend:
[1] = biological target: T1, Nucleotide-binding oligomerization domain-containing protein 1 (Homo sapiens, UniProt Q9Y239); assay: Antagonist activity at human NOD1 expressed in HEK-Blue cells assessed as decrease in SEAP secretion incubated for 3 hrs followed by C12-iE-DAP stimulation for 20 hrs by spectrophotometry; type: cell-based, HEK-Blue hNOD1
T1 sequence (Q9Y239 whole entry): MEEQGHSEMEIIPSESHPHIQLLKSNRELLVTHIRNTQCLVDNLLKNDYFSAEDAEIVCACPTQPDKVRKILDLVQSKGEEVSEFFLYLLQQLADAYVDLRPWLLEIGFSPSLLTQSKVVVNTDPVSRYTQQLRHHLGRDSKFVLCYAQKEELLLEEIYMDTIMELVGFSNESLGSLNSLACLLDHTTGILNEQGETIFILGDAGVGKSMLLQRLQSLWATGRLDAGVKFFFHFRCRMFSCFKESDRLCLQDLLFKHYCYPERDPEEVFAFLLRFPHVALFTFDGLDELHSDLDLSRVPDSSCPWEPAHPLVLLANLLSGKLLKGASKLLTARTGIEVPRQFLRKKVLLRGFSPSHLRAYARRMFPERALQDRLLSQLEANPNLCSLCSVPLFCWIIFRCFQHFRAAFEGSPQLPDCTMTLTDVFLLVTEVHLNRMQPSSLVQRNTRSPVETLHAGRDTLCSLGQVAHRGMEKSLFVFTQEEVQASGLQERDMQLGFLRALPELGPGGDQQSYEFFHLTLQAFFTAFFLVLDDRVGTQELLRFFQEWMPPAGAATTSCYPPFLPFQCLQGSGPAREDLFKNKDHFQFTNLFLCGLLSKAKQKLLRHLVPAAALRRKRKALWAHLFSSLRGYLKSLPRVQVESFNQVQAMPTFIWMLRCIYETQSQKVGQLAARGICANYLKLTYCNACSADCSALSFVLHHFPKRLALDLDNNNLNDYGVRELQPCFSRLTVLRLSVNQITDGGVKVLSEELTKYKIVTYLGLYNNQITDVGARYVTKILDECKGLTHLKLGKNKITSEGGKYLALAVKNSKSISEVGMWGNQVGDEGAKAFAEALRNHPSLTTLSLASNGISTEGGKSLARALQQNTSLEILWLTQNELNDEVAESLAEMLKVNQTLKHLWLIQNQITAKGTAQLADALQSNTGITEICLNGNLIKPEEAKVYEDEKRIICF

[2] = biological target: T2, Nucleotide-binding oligomerization domain-containing protein 1 (Mus musculus) (UniProt Q8BHB0); assay: Antagonist activity at mouse NOD1 expressed in HEK-Blue cells assessed as decrease in SEAP secretion at 1 uM incubated for 3 hrs followed by C12-iE-DAP stimulation for 20 hrs by spectrophotometry relative to control; type: cell-based
T2 sequence (whole entry): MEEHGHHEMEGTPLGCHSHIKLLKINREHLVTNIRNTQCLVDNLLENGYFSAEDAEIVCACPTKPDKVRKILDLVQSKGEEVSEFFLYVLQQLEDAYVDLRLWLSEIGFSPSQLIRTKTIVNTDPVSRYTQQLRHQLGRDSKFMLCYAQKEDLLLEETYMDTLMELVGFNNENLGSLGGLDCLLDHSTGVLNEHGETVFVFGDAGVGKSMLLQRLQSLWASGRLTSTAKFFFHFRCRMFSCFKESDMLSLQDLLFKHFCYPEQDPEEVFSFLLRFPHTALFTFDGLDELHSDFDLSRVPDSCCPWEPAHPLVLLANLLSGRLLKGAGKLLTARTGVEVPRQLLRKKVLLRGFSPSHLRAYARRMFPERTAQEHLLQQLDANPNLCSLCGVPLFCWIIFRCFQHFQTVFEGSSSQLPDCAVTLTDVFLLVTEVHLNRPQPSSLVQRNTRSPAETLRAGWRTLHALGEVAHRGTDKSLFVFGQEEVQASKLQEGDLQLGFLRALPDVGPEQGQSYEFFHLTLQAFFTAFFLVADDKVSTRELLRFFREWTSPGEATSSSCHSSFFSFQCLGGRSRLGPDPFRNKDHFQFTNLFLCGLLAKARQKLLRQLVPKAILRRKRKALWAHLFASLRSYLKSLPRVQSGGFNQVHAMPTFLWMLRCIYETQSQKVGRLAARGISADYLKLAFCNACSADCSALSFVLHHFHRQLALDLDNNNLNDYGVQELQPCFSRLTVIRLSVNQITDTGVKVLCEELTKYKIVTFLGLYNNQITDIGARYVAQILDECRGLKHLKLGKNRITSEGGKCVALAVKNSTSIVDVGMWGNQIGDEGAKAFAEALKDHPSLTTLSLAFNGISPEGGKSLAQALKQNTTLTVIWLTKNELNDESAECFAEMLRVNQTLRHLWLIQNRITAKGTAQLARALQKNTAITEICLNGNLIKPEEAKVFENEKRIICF

[3] = biological target: T3, Nucleotide-binding oligomerization domain-containing protein 1 (Mus musculus, UniProt Q8BHB0); assay: Antagonist activity at mouse NOD1 expressed in HEK-Blue cells assessed as decrease in SEAP secretion incubated for 3 hrs followed by C12-iE-DAP stimulation for 20 hrs by spectrophotometry; type: cell-based, HEK-Blue mNOD1
T3 sequence (Q8BHB0 whole entry): T2 sequence (whole entry)

[4] = biological target: T2, Nucleotide-binding oligomerization domain-containing protein 1 (Mus musculus); assay: Antagonist activity at mouse NOD1 expressed in HEK-Blue cells assessed as decrease in SEAP secretion at 5 uM incubated for 3 hrs followed by C12-iE-DAP stimulation for 20 hrs by spectrophotometry relative to control; type: cell-based
[5] = HEK-Blue mNOD1, filed as antagonist, time 23.0 hrs

Row | Compound | IC50 [1] | inhibition [2, 5] | IC50 [3] | inhibition ([4]; HEK-Blue mNOD1, time 23.0 hrs) | further results
1 | N[C@@H](CCC(=O)N[C@@H](CSc1nc2cnccc2c(=O)n1-c1ccc(Cl)c(NS(=O)(=O)c2ccccc2F)c1)C(=O)NCC(=O)O)C(=O)O |  |  |  |  | inhibition ([2]; HEK-Blue mNOD1, time 23.0 hrs): -1%
2 | O=c1c2ccncc2nc(Cl)n1-c1ccc(Cl)c(NS(=O)(=O)c2cc(F)ccc2F)c1 | 8.4 nM | 81.8% | 165 nM |  | 
3 | C=CS(=O)(=O)Nc1cc(-n2c(Cl)nc3cnc(Cl)cc3c2=O)ccc1Cl |  | 70.2% | 1150 nM |  | 
4 | O=c1c2ccccc2nc(Cl)n1-c1ccc(Cl)c(NS(=O)(=O)c2ccccc2F)c1 |  |  |  |  | inhibition ([2]; HEK-Blue mNOD1, time 23.0 hrs): < 10%
5 | CC(=O)Nc1ccc(Cl)c(NS(=O)(=O)c2ccccc2F)c1 |  |  |  | < 10% | 
6 | Cc1nc2ccc(Cl)cc2c(=O)n1NS(=O)(=O)c1ccc(Cl)cc1 |  |  |  | < 10% | 
7 | O=c1c2cc(Cl)ncc2nc(Cl)n1-c1ccc(Cl)c(NS(=O)(=O)c2ccc(Cl)s2)c1 |  | 76.5% | 300 nM |  | 
8 | CS(=O)(=O)c1ccc2nc(Cl)n(-c3ccc(Cl)c(NS(=O)(=O)c4ccc([N+](=O)[O-])cc4F)c3)c(=O)c2c1 |  | 82.3% | 199 nM |  | 
9 | O=C(CSc1nc2ccc(Cl)cc2c(=O)n1-c1ccc(Cl)c(NS(=O)(=O)c2ccccc2F)c1)Nc1ccccc1 | 44 nM |  |  | < 10% | 
10 | Cc1noc(C)c1S(=O)(=O)Nc1cc(-n2c(Cl)nc3cnc(Cl)cc3c2=O)ccc1Cl |  |  | 559 nM |  | 
11 | O=c1c2cc(Cl)ncc2nc(Cl)n1-c1ccc(Cl)c(NS(=O)(=O)N2CCCCC2)c1 | 126 nM |  |  |  | inhibition ([2]; HEK-Blue mNOD1, time 23.0 hrs): 28.7%
12 | O=c1c2cc(Cl)ccc2nc(NCCCN2CCOCC2)n1-c1ccc(Cl)c(NS(=O)(=O)c2ccccc2F)c1 | 32 nM |  |  |  | inhibition [4, 5]: 46.5%
13 | Cc1nc2ccc(Cl)cc2c(=O)n1CCCNS(=O)(=O)c1ccccc1F |  |  |  | < 10% | 
14 | Cc1nc2ccc(Cl)cc2c(=O)n1-c1ccc(Cl)c(N2Cc3ccccc3S2(=O)=O)c1 | 11200 nM |  |  | 14.5% | 
15 | O=c1c2cc(Cl)ncc2nc(Cl)n1-c1ccc(Cl)c(NS(=O)(=O)c2ccc3c(c2)CCO3)c1 |  |  | 673 nM |  | 
16 | Nc1ccc(Cl)cc1C(=O)Nc1ccc(Cl)c(NS(=O)(=O)c2ccccc2F)c1 |  |  |  | 32.9% | 
17 | Cc1nc2ccc(Cl)cc2c(=O)n1-c1ccc(Cl)c(C(=O)O)c1 |  |  |  | < 10% | 
18 | O=c1c2ccncc2nc(C(F)(F)F)n1-c1ccc(Cl)c(NS(=O)(=O)c2ccccc2F)c1 |  |  |  |  | inhibition ([2]; HEK-Blue mNOD1, time 23.0 hrs): 7.7%

Further lines, with some results ahead:

Row | IC50 [1] | inhibition [2, 5] | IC50 [3] | inhibition ([4]; HEK-Blue mNOD1, time 23.0 hrs) | Compound | further results
19 | 18 nM | 40.5% |  |  | O=c1c2cc(Br)ccc2nc(Cl)n1-c1ccc(Cl)c(NS(=O)(=O)c2ccccc2F)c1 | 
20 |  |  | 624 nM |  | O=c1c2cc(C(F)(F)F)ccc2nc(Cl)n1-c1ccc(Cl)c(NS(=O)(=O)c2ccccc2F)c1 | 
21 |  | 55.3% | 1300 nM |  | O=c1c2cc(F)c(F)cc2nc(Cl)n1-c1ccc(Cl)c(NS(=O)(=O)c2ccccc2F)c1 | 
22 | 9.7 nM | 83.6% | 117 nM |  | N#Cc1ccc2nc(Cl)n(-c3ccc(Cl)c(NS(=O)(=O)c4ccccc4F)c3)c(=O)c2c1 | 
23 | 4.4 nM | 88.9% | 110 nM |  | CS(=O)(=O)c1ccc2nc(Cl)n(-c3ccc(Cl)c(NS(=O)(=O)c4ccccc4F)c3)c(=O)c2c1 | 
24 |  |  |  | 11.4% | CCOC(=O)c1nc2ccc(Cl)cc2c(=O)n1-c1ccc(Cl)c(NS(=O)(=O)c2ccccc2F)c1 | 
25 |  |  | 285 nM |  | O=c1c2cc(Cl)ncc2nc(Cl)n1-c1ccc(Cl)c(NS(=O)(=O)c2ccccc2Cl)c1 | 
